Tests used:
MDA-MB231 cells = test: Growth inhibition of ER-negative MDA-MB231 cells, MTS assay; details: for growth inhibitory activity: ER-negative MDA-MB231 cells, 72 h, MTS; for toxicity to cells: MDA-MB231 cells, 25 μM
[1] = test system: ATCC MCF7 cells (ERα expressing); test: Inhibition of E2-induced proliferation, MTS assay, ATCC MCF7 expressing only ERα; type: cell-based, human; details: 1 nM E2, 6 days

Structure (SMILES) | growth inhibitory activity (MDA-MB231 cells) | toxicity to cells (MDA-MB231 cells) | GI50, inhibition of E2-induced proliferation [1]
CCCC[C@@H]1C[C@H]1[C@@H](N)c1ccc(-c2ccc(O)cc2)cc1F.Cl [Compound 13] | did not demonstrate significant growth inhibitory activity | toxicity | –
O=C(c1ccc(OCCN2CCCCC2)cc1)c1c(-c2ccc(O)cc2)sc2cc(O)ccc12 [RAL, Raloxifene, reference compound] | did not demonstrate significant growth inhibitory activity | toxicity | –
CCCC[C@@H]1C[C@H]1[C@@H](NC(=O)c1ccccc1)c1ccc(-c2ccc(O)cc2)cc1F [Compound 11b] | did not demonstrate significant growth inhibitory activity | toxicity | did not demonstrate inhibition

Source: paper PMC2676897 (Bioorganic & medicinal chemistry letters, 2009)
